Here are results for three molecules from US20240002424A1, “HEXOSAMINE COMPOUNDS AND METHODS THEREOF” (National Institute of Immunology, priority 2021, published 2024).

What all share (type): cell-based, human
For experiment [1], the system named is HL-60 cells. Nature of the experiment: Total and glycoside bound sialic acids by periodate-resorcinol assay. The conditions noted are these: 100 μM, 48 h. The method, then: Total sialic acids were measured following reported procedures. HL-60 cells (3.0×10^5 cells/mL in 10 mL complete medium in 10 cm diameter Petri dishes) were incubated with D, 1a, 1b, 1c, 1d, 1e, 1f, 1g, 2a, or 2b (100 mM each), along with untreated (U) controls. After 48 h, cells were harvested, washed with PBS (3×5.0 mL; 3000×g, for 2.0 min), aliquoted to 2×10^6 cells per sample and resuspended in PBS (150 mL) in 1.5 mL microcentrifuge tubes. Cells were lyzed by three freeze-thaw cycles and the total lysates were subjected to periodate-resorcinol assay. Briefly, lysates (150 mL) were treated with 0.4 M aqueous periodic acid (6.67 mM) or (2.5 mL) and incubated either on ice for 15 min (for measurement of total sialic acids) or at 37° C. for 1.0 h (for measurement of glycoconjugate bound sialic acids). About 10 mL of reagent cocktail was prepared using 6% w/v of aqueous resorcinol (1.0 mL), 2.5 mM copper (II) sulfate (1.0 mL), 44% of concentrated hydrochloric acid (4.4 mL), and water (3.6 mL). The mixture was then treated with the reagent cocktail (250 mL per sample), boiled at 100° C. for 10 min, rapidly quenched in an ice-bath and treated with tert-butanol (250 mL). The contents were centrifuged and the supernatants were aliquoted (200 mL) into 96-well plates and the absorbance at 630 nm was measured. At least three replicates were prepared for each condition.

For experiment [2], the system named is HL-60 cells. Nature of the experiment: Western blot of total lysates for sLeX (CSLEX1) epitopes. As to conditions: HL-60 total lysates; 50 μM, 72 h. The method, then:
Effect of ManNAc analogues on expression of CD15s epitopes: HL-60 cells (3.0×10^5 cells/mL in 10 mL complete medium in 10 cm diameter petri dishes) were incubated with D, 1a, 1b, 1d, 1e, 1f, or 1g (50 mM), along with untreated (U) controls. After 72 h, cells were harvested, washed with PBS (3×5.0 mL), and lysed in RIPA buffer (10^7 cells in […]), containing protease inhibitor cocktail (PIC, 1:100). Protein concentration of the soluble fraction was estimated using the Bradford assay. Proteins from total lysates were resolved by 7.5% SDS-PAGE and blotted onto nitrocellulose membrane (constant current of 250 mA for 3.0 h at 4° C.). Membranes were blocked using non-fat milk (NFM) (5.0% w/v) in PBS and incubated with primary antibodies (5.0 mL PBS containing 5.0% NFM) overnight at 4° C. Membranes were washed with 0.1% PBS-T (0.1% v/v tween-20 in PBS; 3×5.0 mL, five min each at room temperature) followed by incubation with appropriate fluorophore or horse radish peroxidase (HRP) conjugated secondary antibodies for 1.0 h at room temperature. Membranes were washed with 0.1% PBS-T (3×5.0 mL, five min each) and then either directly scanned using Amersham Typhoon fluorescence scanner or developed on photographic films after treatment with enhanced chemiluminescence reagents. At least two independent replicate experiments were performed for all the blots.
The primary and secondary antibodies employed, along with dilution and stock concentration, are given below: Primary antibodies: Anti-CD15s (CSLEX1; IgM, dilution 1:5000; stock concentration 0.5 mg/mL) Anti-CLA (HECA452; IgM, dilution 1:1000, stock concentration 0.5 mg/mL) […] (AC15, IgG, dilution 1:20000, stock concentration 2.2 mg/mL); and Secondary Antibodies: AlexaFluor488-conjugated anti-mouse IgM (1:10000, stock concentration 2.0 mg/mL) AlexaFluor488-conjugated anti-rat IgM (1:10000, stock concentration 0.5 mg/mL) HRP-conjugated anti-mouse IgG (1:10000, stock concentration 0.8 mg/mL) Cy5-conjugated donkey anti-mouse IgG (1:10000, stock concentration 1.4 mg/mL) AlexaFluorplus488-conjugated anti-mouse IgG (1:10000, stock conc. 2.0 mg/mL).

Experiment [3] deals with HL-60 cells. Nature of the experiment: Binding of mouse E-selectin-Fc chimera (mCD62E) to cells by flow cytometry. As to conditions: 50 μM, 72 h. The protocol: Effect of HexNAc analogues on the expression of E-selectin ligands: HL-60 cells (3.0×10^5 cells/mL in 2.5 mL complete medium in 6-well plates) were incubated with D, 1a, 1b, or 1d (50 mM), along with untreated controls. After 72 h, cells were harvested and washed with PBS (3×0.5 mL). Prior to the last wash, cells were counted and aliquoted into 5.0×10^5 cells per sample. Cells were stained with mCD62E-Fc chimera protein (10 mg/mL) in PBS (50 mL) at 4° C. After 1.0 h, cells were washed with PBS (2×0.5 mL) and stained with PEconjugated F(ab′)2 goat anti-human Fc in PBS (50 mL) at 4° C. After 1.0 h, cells were washed with PBS (2×0.5 mL) and resuspended in 0.85% saline (0.2 mL) containing Sytox Red (dilution 1:1000; stock concentration of 5.0 mM). Additionally, control samples of cells treated with only the secondary antibody were prepared. Two replicate samples were analyzed for each condition and each sample was counted twice by flow cytometry as mentioned above.

The subject of experiment [4] is HL-60 cells. Nature of the experiment: Anti-CLA (HECA452) antibody binding by flow cytometry. As to conditions: 50 μM, 24 h. The method, then: Effect of HexNAc analogues on the expression of cutaneous lymphocyte antigen (CLA/HECA452) epitopes: HL-60 cells (3.0×10^5 cells/mL in 2.5 mL complete medium in 6-well plates) were treated with D, 1a, 1b, or 1d (50 mM), including untreated controls. After 24 h cells were harvested, washed in PBS (3×0.5 mL), aliquoted to 5.0×10^5 cells per sample, and incubated with rat anti-human CLA (HECA452) antibody (5.0 mg/mL) in PBS (50 mL) at 4° C. After 1.0 h, cells were washed with PBS (2×0.5 mL) and stained with AlexaFluor488-conjugated anti-rat IgM (10 mg/mL) in PBS (50 mL) at 4° C. After 1.0 h, cells were washed with PBS (2×0.5 mL), resuspended in PBS (0.2 mL) and treated with PI (2.5 mg/mL). Additionally control samples of cells treated with (i) isotype antibody followed by secondary antibody and (ii) only secondary antibody were prepared. Cells were gated on PI-negative population and analyzed by flow cytometry as given above. Two replicate samples were analyzed for each condition and each sample was counted twice by flow cytometry as mentioned above.
Background: In flow cytometry, cells or beads pass a laser one at a time.

SMILES strings stand for the structures. “Also recorded” adds a separate entry of the source.

With `CC(=O)OC[C@H]1O[C@H](OC(C)=O)[C@@H](NC(=O)C2CC2)[C@@H](OC(C)=O)[C@@H]1OC(C)=O` [Compound 1a, 1,3,4,6-tetra-O-acetyl-2-cyclopropanoylamino-2-deoxy-α-D-mannopyranose], in experiment [1], the “decrease in glycoside bound sialic acid levels” value is around 10% and the “ratio of total sialic acids to glycoside bound sialic acids vs untreated cells” value is “higher ratios of free sialic acid”. Further, in experiment [2], the “sLeX (CSLEX1) bands between 150-100 kDa in western blot” value (shortened to “sLeX”) is reported as “faint increase”. The “change in mCD62E binding with respect to untreated cells (in words)” value in experiment [3] is on record as “no significant change”. Besides, the “decrease in HECA-452 binding compared to untreated cells” value in experiment [4] came out at 40%.
For `CC(=O)OC[C@H]1OC(OC(C)=O)[C@@H](NC(=O)C2CCC2)[C@@H](OC(C)=O)[C@@H]1OC(C)=O` (stereo partly drawn) [Compound 1b, (3S,4R,5S,6R)-6-(acetoxymethyl)-3-(cyclobutanecarboxamido)tetrahydro-2H-pyran-2,4,5-triyl triacetate], in experiment [1], the “decrease in glycoside bound sialic acid levels” value is recorded as around 10% and the “ratio of total sialic acids to glycoside bound sialic acids vs untreated cells” value was “higher ratios of free sialic acid”. Also, the “sLeX” value in experiment [2] is “Robust increase”. The “increase in mCD62E (E-selectin-Fc) binding with respect to untreated cells” value in experiment [3] is 2.3 fold. Also, the “decrease in HECA-452 binding compared to untreated cells” value in experiment [4] is 40%.
With `CC(=O)NC1C(OC(C)=O)OC(COC(C)=O)[C@@H](OC(C)=O)[C@@H]1OC(C)=O` (stereo partly drawn) [Compound 1d, 1,3,4,6-tetra-O-acetyl-2-acetylamino-2-deoxy-α/β-D-mannopyranose], in experiment [1], the “increase in glycoside bound sialic acid levels” value is reported as around 10%, the “increase in total sialic acid levels vs untreated cells” value came out at 2.0 fold and the “ratio of total sialic acids to glycoside bound sialic acids vs untreated cells” value is “higher ratios of free sialic acid”. Further, in experiment [2], the “sLeX” value is given as “negative for sLeX epitopes; also recorded: not detectable”. In experiment [3], the “change in mCD62E binding with respect to untreated cells (in words)” value is on record as “no significant change”. The “change in HECA-452 binding (in words)” value in experiment [4] is recorded as “moderate increase”.
